Assay results published in patent USRE42890E1, “Furazanobenzimidazoles” (Basilea Pharmaceutica AG, priority 2003, dated 2011).

System: HeLa
Test: MTS proliferation assay, HeLa
Type: cell-based, human
Conditions: Homo sapiens, 72 h incubation, read-out: MTS proliferation assay IC 50 HeLa
Outline: (§1)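 Seed cells (1.5*10^3-10^4/well) 24 h ahead; add compound, final 10/3/1/0.3 μM; incubate 72 h, 37 °C, 7.5% CO2; MTS 3 h; read A492.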

Compound | IC50
Nc1ccc(C(=O)Cn2c(-c3nonc3NCCC(=O)O)nc3ccccc32)cc1 [Example 13, 4-[1-(4-Aminophenacyl)-1H-benzimidazol-2-yl]-furazan-3-yl-N-(2-carboxyethyl)-amine] | 100 to 1000 nM
Nc1cc(C(=O)Cn2c(-c3nonc3N)nc3ccccc32)ccc1Cl [Example 14, 4-[1-(3-Amino-4-chlorophenacyl)-1H-benzimidazol-2-yl]-furazan-3-ylamine] | 10 to 100 nM

System: HT1080
Test: MTS proliferation assay, HT1080
Type: cell-based, human
Conditions: Homo sapiens, HT-1080; HT1080, 72 h incubation; read-out: MTS proliferation assay IC 50 HT1080
Outline: as §1

Compound | IC50
Nc1ccc(C(=O)Cn2c(-c3nonc3NCCC(=O)O)nc3ccccc32)cc1 [Example 13, 4-[1-(4-Aminophenacyl)-1H-benzimidazol-2-yl]-furazan-3-yl-N-(2-carboxyethyl)-amine] | 100 to 1000 nM
Nc1cc(C(=O)Cn2c(-c3nonc3N)nc3ccccc32)ccc1Cl [Example 14, 4-[1-(3-Amino-4-chlorophenacyl)-1H-benzimidazol-2-yl]-furazan-3-ylamine] | 10 to 100 nM

System: Jily
Test: MTS proliferation assay, Jily
Type: cell-based
Conditions: 72 h incubation, read-out: MTS proliferation assay IC 50 Jily
Outline: (§2)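 RPMI-1640 + 5% or 10% FCS; seeded 24 h pre-dose; cpd final 10/3/1/0.3 μM, max 5% DMSO in added volume; 72 h, 37° C, 7.5% CO2; MTS 3 h; A492.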

Compound | IC50
Nc1ccc(C(=O)Cn2c(-c3nonc3NCCC(=O)O)nc3ccccc32)cc1 [Example 13, 4-[1-(4-Aminophenacyl)-1H-benzimidazol-2-yl]-furazan-3-yl-N-(2-carboxyethyl)-amine] | 100 to 1000 nM
Nc1cc(C(=O)Cn2c(-c3nonc3N)nc3ccccc32)ccc1Cl [Example 14, 4-[1-(3-Amino-4-chlorophenacyl)-1H-benzimidazol-2-yl]-furazan-3-ylamine] | 10 to 100 nM

System: Jurkat
Test: MTS proliferation assay, Jurkat
Type: cell-based, human
Conditions: Homo sapiens, 72 h incubation, read-out: MTS proliferation assay IC 50 Jurkat
Outline: as §1

Compound | IC50
Nc1ccc(C(=O)Cn2c(-c3nonc3NCCC(=O)O)nc3ccccc32)cc1 [Example 13, 4-[1-(4-Aminophenacyl)-1H-benzimidazol-2-yl]-furazan-3-yl-N-(2-carboxyethyl)-amine] | 100 to 1000 nM
Nc1cc(C(=O)Cn2c(-c3nonc3N)nc3ccccc32)ccc1Cl [Example 14, 4-[1-(3-Amino-4-chlorophenacyl)-1H-benzimidazol-2-yl]-furazan-3-ylamine] | 10 to 100 nM

System: MRC5
Test: MTS proliferation assay, MRC5
Type: cell-based
Conditions: Homo sapiens; MRC5, 72 h incubation; read-out: MTS proliferation assay IC 50 MRC5
Outline: as §2

Compound | IC50
Nc1ccc(C(=O)Cn2c(-c3nonc3NCCC(=O)O)nc3ccccc32)cc1 [Example 13, 4-[1-(4-Aminophenacyl)-1H-benzimidazol-2-yl]-furazan-3-yl-N-(2-carboxyethyl)-amine] | 100 to 1000 nM
Nc1cc(C(=O)Cn2c(-c3nonc3N)nc3ccccc32)ccc1Cl [Example 14, 4-[1-(3-Amino-4-chlorophenacyl)-1H-benzimidazol-2-yl]-furazan-3-ylamine] | 10 to 100 nM

System: adherent cells or suspension cells
Test: Hoechst 33342 nuclear staining (fraction of apoptotic nuclei)
Type: cell-based
Parameters: key: 0 relating to no activity; 1 relating to weak activity comprising less than 70% of the cells; score 2 relating to strong activity comprising more than 70% of the cells
Conditions: H460, conc 0.01 μm

Compound | Hoechst 33342 nuclear staining score
Nc1ccc(C(=O)Cn2c(-c3nonc3NCCC(=O)O)nc3ccccc32)cc1 [Example 13, 4-[1-(4-Aminophenacyl)-1H-benzimidazol-2-yl]-furazan-3-yl-N-(2-carboxyethyl)-amine] | 0
Nc1cc(C(=O)Cn2c(-c3nonc3N)nc3ccccc32)ccc1Cl [Example 14, 4-[1-(3-Amino-4-chlorophenacyl)-1H-benzimidazol-2-yl]-furazan-3-ylamine] | 0

Same assay, conditions: H460, conc 0.1 μm

Compound | Hoechst 33342 nuclear staining score
Nc1ccc(C(=O)Cn2c(-c3nonc3NCCC(=O)O)nc3ccccc32)cc1 [Example 13, 4-[1-(4-Aminophenacyl)-1H-benzimidazol-2-yl]-furazan-3-yl-N-(2-carboxyethyl)-amine] | 0
Nc1cc(C(=O)Cn2c(-c3nonc3N)nc3ccccc32)ccc1Cl [Example 14, 4-[1-(3-Amino-4-chlorophenacyl)-1H-benzimidazol-2-yl]-furazan-3-ylamine] | 2 (score 2 relating to strong activity comprising more than 70% of the cells)

Same assay, conditions: H460, conc 1 μm

Compound | Hoechst 33342 nuclear staining score
Nc1ccc(C(=O)Cn2c(-c3nonc3NCCC(=O)O)nc3ccccc32)cc1 [Example 13, 4-[1-(4-Aminophenacyl)-1H-benzimidazol-2-yl]-furazan-3-yl-N-(2-carboxyethyl)-amine] | 2 (score 2 relating to strong activity comprising more than 70% of the cells)
Nc1cc(C(=O)Cn2c(-c3nonc3N)nc3ccccc32)ccc1Cl [Example 14, 4-[1-(3-Amino-4-chlorophenacyl)-1H-benzimidazol-2-yl]-furazan-3-ylamine] | 2 (score 2 relating to strong activity comprising more than 70% of the cells)

Same assay, conditions: HeLa, conc 0.01 μm

Compound | Hoechst 33342 nuclear staining score
Nc1ccc(C(=O)Cn2c(-c3nonc3NCCC(=O)O)nc3ccccc32)cc1 [Example 13, 4-[1-(4-Aminophenacyl)-1H-benzimidazol-2-yl]-furazan-3-yl-N-(2-carboxyethyl)-amine] | 0
Nc1cc(C(=O)Cn2c(-c3nonc3N)nc3ccccc32)ccc1Cl [Example 14, 4-[1-(3-Amino-4-chlorophenacyl)-1H-benzimidazol-2-yl]-furazan-3-ylamine] | 0

Same assay, conditions: HeLa, conc 0.1 μm

Compound | Hoechst 33342 nuclear staining score
Nc1ccc(C(=O)Cn2c(-c3nonc3NCCC(=O)O)nc3ccccc32)cc1 [Example 13, 4-[1-(4-Aminophenacyl)-1H-benzimidazol-2-yl]-furazan-3-yl-N-(2-carboxyethyl)-amine] | 0
Nc1cc(C(=O)Cn2c(-c3nonc3N)nc3ccccc32)ccc1Cl [Example 14, 4-[1-(3-Amino-4-chlorophenacyl)-1H-benzimidazol-2-yl]-furazan-3-ylamine] | 1 (1 relating to weak activity comprising less than 70% of the cells)

Same assay, conditions: HeLa, conc 1 μm

Compound | Hoechst 33342 nuclear staining score
Nc1ccc(C(=O)Cn2c(-c3nonc3NCCC(=O)O)nc3ccccc32)cc1 [Example 13, 4-[1-(4-Aminophenacyl)-1H-benzimidazol-2-yl]-furazan-3-yl-N-(2-carboxyethyl)-amine] | 2 (score 2 relating to strong activity comprising more than 70% of the cells)
Nc1cc(C(=O)Cn2c(-c3nonc3N)nc3ccccc32)ccc1Cl [Example 14, 4-[1-(3-Amino-4-chlorophenacyl)-1H-benzimidazol-2-yl]-furazan-3-ylamine] | 2 (score 2 relating to strong activity comprising more than 70% of the cells)

Same assay, conditions: Jily, conc 0.01 μm

Compound | Hoechst 33342 nuclear staining score
Nc1ccc(C(=O)Cn2c(-c3nonc3NCCC(=O)O)nc3ccccc32)cc1 [Example 13, 4-[1-(4-Aminophenacyl)-1H-benzimidazol-2-yl]-furazan-3-yl-N-(2-carboxyethyl)-amine] | 0
Nc1cc(C(=O)Cn2c(-c3nonc3N)nc3ccccc32)ccc1Cl [Example 14, 4-[1-(3-Amino-4-chlorophenacyl)-1H-benzimidazol-2-yl]-furazan-3-ylamine] | 0

Same assay, conditions: Jily, conc 0.1 μm

Compound | Hoechst 33342 nuclear staining score
Nc1ccc(C(=O)Cn2c(-c3nonc3NCCC(=O)O)nc3ccccc32)cc1 [Example 13, 4-[1-(4-Aminophenacyl)-1H-benzimidazol-2-yl]-furazan-3-yl-N-(2-carboxyethyl)-amine] | 0
Nc1cc(C(=O)Cn2c(-c3nonc3N)nc3ccccc32)ccc1Cl [Example 14, 4-[1-(3-Amino-4-chlorophenacyl)-1H-benzimidazol-2-yl]-furazan-3-ylamine] | 2 (score 2 relating to strong activity comprising more than 70% of the cells)

Same assay, conditions: Jily, conc 1 μm

Compound | Hoechst 33342 nuclear staining score
Nc1ccc(C(=O)Cn2c(-c3nonc3NCCC(=O)O)nc3ccccc32)cc1 [Example 13, 4-[1-(4-Aminophenacyl)-1H-benzimidazol-2-yl]-furazan-3-yl-N-(2-carboxyethyl)-amine] | 2 (score 2 relating to strong activity comprising more than 70% of the cells)
Nc1cc(C(=O)Cn2c(-c3nonc3N)nc3ccccc32)ccc1Cl [Example 14, 4-[1-(3-Amino-4-chlorophenacyl)-1H-benzimidazol-2-yl]-furazan-3-ylamine] | 2 (score 2 relating to strong activity comprising more than 70% of the cells)

Same assay, conditions: Jurkat, conc 0.01 μm

Compound | Hoechst 33342 nuclear staining score
Nc1ccc(C(=O)Cn2c(-c3nonc3NCCC(=O)O)nc3ccccc32)cc1 [Example 13, 4-[1-(4-Aminophenacyl)-1H-benzimidazol-2-yl]-furazan-3-yl-N-(2-carboxyethyl)-amine] | 0
Nc1cc(C(=O)Cn2c(-c3nonc3N)nc3ccccc32)ccc1Cl [Example 14, 4-[1-(3-Amino-4-chlorophenacyl)-1H-benzimidazol-2-yl]-furazan-3-ylamine] | 0

Same assay, conditions: Jurkat, conc 0.1 μm

Compound | Hoechst 33342 nuclear staining score
Nc1ccc(C(=O)Cn2c(-c3nonc3NCCC(=O)O)nc3ccccc32)cc1 [Example 13, 4-[1-(4-Aminophenacyl)-1H-benzimidazol-2-yl]-furazan-3-yl-N-(2-carboxyethyl)-amine] | 0
Nc1cc(C(=O)Cn2c(-c3nonc3N)nc3ccccc32)ccc1Cl [Example 14, 4-[1-(3-Amino-4-chlorophenacyl)-1H-benzimidazol-2-yl]-furazan-3-ylamine] | 2 (score 2 relating to strong activity comprising more than 70% of the cells)

Same assay, conditions: Jurkat, conc 1 μm

Compound | Hoechst 33342 nuclear staining score
Nc1ccc(C(=O)Cn2c(-c3nonc3NCCC(=O)O)nc3ccccc32)cc1 [Example 13, 4-[1-(4-Aminophenacyl)-1H-benzimidazol-2-yl]-furazan-3-yl-N-(2-carboxyethyl)-amine] | 2 (score 2 relating to strong activity comprising more than 70% of the cells)
Nc1cc(C(=O)Cn2c(-c3nonc3N)nc3ccccc32)ccc1Cl [Example 14, 4-[1-(3-Amino-4-chlorophenacyl)-1H-benzimidazol-2-yl]-furazan-3-ylamine] | 2 (score 2 relating to strong activity comprising more than 70% of the cells)

Same assay, conditions: MRC5, conc 0.01 μm

Compound | Hoechst 33342 nuclear staining score
Nc1ccc(C(=O)Cn2c(-c3nonc3NCCC(=O)O)nc3ccccc32)cc1 [Example 13, 4-[1-(4-Aminophenacyl)-1H-benzimidazol-2-yl]-furazan-3-yl-N-(2-carboxyethyl)-amine] | 0
Nc1cc(C(=O)Cn2c(-c3nonc3N)nc3ccccc32)ccc1Cl [Example 14, 4-[1-(3-Amino-4-chlorophenacyl)-1H-benzimidazol-2-yl]-furazan-3-ylamine] | 0

Same assay, conditions: MRC5, conc 0.1 μm

Compound | Hoechst 33342 nuclear staining score
Nc1ccc(C(=O)Cn2c(-c3nonc3NCCC(=O)O)nc3ccccc32)cc1 [Example 13, 4-[1-(4-Aminophenacyl)-1H-benzimidazol-2-yl]-furazan-3-yl-N-(2-carboxyethyl)-amine] | 0
Nc1cc(C(=O)Cn2c(-c3nonc3N)nc3ccccc32)ccc1Cl [Example 14, 4-[1-(3-Amino-4-chlorophenacyl)-1H-benzimidazol-2-yl]-furazan-3-ylamine] | 1 (1 relating to weak activity comprising less than 70% of the cells)

Same assay, conditions: MRC5, conc 1 μm

Compound | Hoechst 33342 nuclear staining score
Nc1ccc(C(=O)Cn2c(-c3nonc3NCCC(=O)O)nc3ccccc32)cc1 [Example 13, 4-[1-(4-Aminophenacyl)-1H-benzimidazol-2-yl]-furazan-3-yl-N-(2-carboxyethyl)-amine] | 2 (score 2 relating to strong activity comprising more than 70% of the cells)
Nc1cc(C(=O)Cn2c(-c3nonc3N)nc3ccccc32)ccc1Cl [Example 14, 4-[1-(3-Amino-4-chlorophenacyl)-1H-benzimidazol-2-yl]-furazan-3-ylamine] | 2 (score 2 relating to strong activity comprising more than 70% of the cells)

Same assay, conditions: PBLs, conc 0.01 μm

Compound | Hoechst 33342 nuclear staining score
Nc1ccc(C(=O)Cn2c(-c3nonc3NCCC(=O)O)nc3ccccc32)cc1 [Example 13, 4-[1-(4-Aminophenacyl)-1H-benzimidazol-2-yl]-furazan-3-yl-N-(2-carboxyethyl)-amine] | 0
Nc1cc(C(=O)Cn2c(-c3nonc3N)nc3ccccc32)ccc1Cl [Example 14, 4-[1-(3-Amino-4-chlorophenacyl)-1H-benzimidazol-2-yl]-furazan-3-ylamine] | 0

Same assay, conditions: PBLs, conc 0.1 μm

Compound | Hoechst 33342 nuclear staining score
Nc1ccc(C(=O)Cn2c(-c3nonc3NCCC(=O)O)nc3ccccc32)cc1 [Example 13, 4-[1-(4-Aminophenacyl)-1H-benzimidazol-2-yl]-furazan-3-yl-N-(2-carboxyethyl)-amine] | 0
Nc1cc(C(=O)Cn2c(-c3nonc3N)nc3ccccc32)ccc1Cl [Example 14, 4-[1-(3-Amino-4-chlorophenacyl)-1H-benzimidazol-2-yl]-furazan-3-ylamine] | 0

Same assay, conditions: PBLs, conc 1 μm

Compound | Hoechst 33342 nuclear staining score
Nc1ccc(C(=O)Cn2c(-c3nonc3NCCC(=O)O)nc3ccccc32)cc1 [Example 13, 4-[1-(4-Aminophenacyl)-1H-benzimidazol-2-yl]-furazan-3-yl-N-(2-carboxyethyl)-amine] | 0
Nc1cc(C(=O)Cn2c(-c3nonc3N)nc3ccccc32)ccc1Cl [Example 14, 4-[1-(3-Amino-4-chlorophenacyl)-1H-benzimidazol-2-yl]-furazan-3-ylamine] | 0
